Source: patent US20040161861A1, “Glycoconjugate sensors” (priority 2002, published 2004)

What was measured:
Details in all cases: colorimetric ELISA, OD at 405 nm, FIG. 5
B. thuringiensis spores = assay type: binding, Bacillus thuringiensis
B. cereus spores = assay type: binding, Bacillus cereus
B. subtilis spores = assay type: binding, Bacillus subtilis
B. pumilus spores = assay type: binding

Fuc α1-3 GlcNAc β-PAA-flu
binding match between spores and immobilized glycoconjugate (B. thuringiensis spores): bound

Fuc α 1-4 GlcNAc β-PAA-flu
binding match between spores and immobilized glycoconjugate (B. thuringiensis spores): bound

Gal α 1-3 GalNAc α-PAA-flu
binding match between spores and immobilized glycoconjugate (B. cereus spores): bound

Gal β1-3 Gal β-PAA-flu
binding match between spores and immobilized glycoconjugate (B. subtilis spores): bound

Gal β1-3 GalNAc β-PAA-flu
binding match between spores and immobilized glycoconjugate (B. pumilus spores): bound

Gal β1-3GalNAc α-PAA-flu
binding match between spores and immobilized glycoconjugate (B. pumilus spores): bound

Gal β 1-4 Glc β-PAA-flu
binding match between spores and immobilized glycoconjugate (B. cereus spores): bound

GlcNAc β 1-4 GlcNAc β-PAA-flu
binding match between spores and immobilized glycoconjugate (B. subtilis spores): bound
